According to ChEMBL document CHEMBL4483862, “Open-source discovery of chemical leads for next-generation chemoprotective antimalarials” (2018):
pIC50: −log10 of the molar value.

System: Plasmodium berghei
Experiment: Luciferase/luciferin-expressing antifolate-resistant parasites were used to infect a culture of HepG2 cells that were pre-incubated with compounds. Infected hepatocytes emit light due to the luciferase reaction. Assay results are presented as the percent inhibition of light emission compared to control. […]
Assay type: functional
Settings: sporozoite; for IC90: read-out: LUCIFERASE INFECTION ASSAY - IC90

Structure (SMILES) | IC90 | further results
CC1CCCCC1Nc1ncnc2sccc12 (stereo unspecified) | > 10 µM | pIC50 (HEPG2TOX_HILL_SLOPE 0.142, HEPG2TOX_R_SQUARED 0.36, PBLUC_HILL_SLOPE 4.81, PBLUC_R_SQUARED 0.31, read-out: LUCIFERASE INFECTION ASSAY - IC50): 5.01
CCOc1ccc(Nc2nc3cc(S(=O)(=O)N(CC)CC)ccc3o2)cc1 | > 10 µM | pIC50 (HEPG2TOX_HILL_SLOPE 0.167, HEPG2TOX_R_SQUARED 0.162, read-out: LUCIFERASE INFECTION ASSAY - IC50): < 5.00
CC(C)(C)c1ccc(CC(=O)N2CCC2(C)C(=O)Nc2cnc3ccccc3c2)cc1 (stereo unspecified) | 3.72 µM | pIC50 (HEPG2TOX_HILL_SLOPE 0.158, HEPG2TOX_R_SQUARED 0.645, PBLUC_HILL_SLOPE 10.5, PBLUC_R_SQUARED 0.686, read-out: LUCIFERASE INFECTION ASSAY - IC50): 5.52
Cc1cnc(C(=O)OCC(=O)N(CC(C)C)C2CCS(=O)(=O)C2)cn1 (stereo unspecified) | > 10 µM | pIC50 (HEPG2TOX_HILL_SLOPE 0.131, HEPG2TOX_R_SQUARED 0.272, PBLUC_HILL_SLOPE 1.29, PBLUC_R_SQUARED 0.0136, read-out: LUCIFERASE INFECTION ASSAY - IC50): < 5.00
CCN(c1ccccc1)S(=O)(=O)c1ccc(C(=O)NC2CCCCC2)cc1 | > 10 µM | pIC50 (HEPG2TOX_HILL_SLOPE 0.154, HEPG2TOX_R_SQUARED 0.656, read-out: LUCIFERASE INFECTION ASSAY - IC50): < 5.00
COc1cc(NC(=O)COC(=O)c2ccccc2Nc2ccc(SC(F)F)cc2)c(C)cc1[N+](=O)[O-] | > 10 µM | pIC50 (HEPG2TOX_HILL_SLOPE 0.171, HEPG2TOX_R_SQUARED 0.654, read-out: LUCIFERASE INFECTION ASSAY - IC50): < 5.00
O=C(CCC(=O)N1CCC(C(O)(c2ccccc2)c2ccccc2)CC1)c1cccs1 | 3.65 µM | pIC50 (HEPG2TOX_HILL_SLOPE 0.15, HEPG2TOX_R_SQUARED 0.513, PBLUC_HILL_SLOPE 4.19, PBLUC_R_SQUARED 0.279, read-out: LUCIFERASE INFECTION ASSAY - IC50): 5.67
Cc1ccc(-c2csc3[nH]c(=S)n(Cc4ccccc4)c(=O)c23)cc1 | > 10 µM | pIC50 (HEPG2TOX_HILL_SLOPE 0.131, HEPG2TOX_R_SQUARED 0.154, PBLUC_HILL_SLOPE 0.317, PBLUC_R_SQUARED 0.176, read-out: LUCIFERASE INFECTION ASSAY - IC50): 5.12
O=C(CSc1nnc(-c2ccncc2)[nH]1)N1N=C(c2cccs2)CC1c1cccs1 (stereo unspecified) | > 10 µM | pIC50 (HEPG2TOX_HILL_SLOPE 0.148, HEPG2TOX_R_SQUARED 0.0376, read-out: LUCIFERASE INFECTION ASSAY - IC50): < 5.00
Cc1nnc(SCCOc2ccc(C(C)(C)C)cc2)n1C1CCCCC1 | > 10 µM | pIC50 (HEPG2TOX_HILL_SLOPE 0.16, HEPG2TOX_R_SQUARED 0.182, read-out: LUCIFERASE INFECTION ASSAY - IC50): < 5.00
CC(Sc1nc(=O)c2c3c(sc2[nH]1)CCCC3)C(=O)Nc1ccc2ccccc2c1 (stereo unspecified) | > 10 µM | pIC50 (HEPG2TOX_HILL_SLOPE 0.165, HEPG2TOX_R_SQUARED 0.248, read-out: LUCIFERASE INFECTION ASSAY - IC50): < 5.00
CCn1c(O)c(C2NCCc3c2[nH]c2ccc(OC)cc32)c(=O)[nH]c1=O (stereo unspecified) | 4.71 µM | pIC50 (HEPG2TOX_HILL_SLOPE 0.178, HEPG2TOX_R_SQUARED 0.706, PBLUC_HILL_SLOPE 1.13, PBLUC_R_SQUARED 0.918, read-out: LUCIFERASE INFECTION ASSAY - IC50): 6.17
Fc1ccc(-c2cnc3cnc(-c4cccs4)cn23)cc1Cl | > 10 µM | pIC50 (HEPG2TOX_HILL_SLOPE 0.129, HEPG2TOX_R_SQUARED 0.552, PBLUC_HILL_SLOPE 2.11, PBLUC_R_SQUARED 0.543, read-out: LUCIFERASE INFECTION ASSAY - IC50): 5.34
Cc1nc(CCNC(=O)Cc2cn(-c3ccccc3)nc2-c2ccc(Cl)cc2)cs1 | > 10 µM | pIC50 (HEPG2TOX_HILL_SLOPE 0.133, HEPG2TOX_R_SQUARED 0.316, PBLUC_HILL_SLOPE 7.24, PBLUC_R_SQUARED 0.0479, read-out: LUCIFERASE INFECTION ASSAY - IC50): 5.06
CC(C)c1cccc(Nc2nnc(C(O)c3cccc(N(C)C)c3)s2)c1 (stereo unspecified) | > 10 µM | pIC50 (HEPG2TOX_HILL_SLOPE 0.177, HEPG2TOX_R_SQUARED 0.124, PBLUC_HILL_SLOPE 3.19, PBLUC_R_SQUARED 0.0119, read-out: LUCIFERASE INFECTION ASSAY - IC50): < 5.00
CC(C)[C@H](NC(=O)c1ccccc1Cl)C(=O)OC(C(=O)Nc1cccc(C(F)(F)F)c1)c1ccccc1 (stereo partly specified) | > 10 µM | pIC50 (HEPG2TOX_HILL_SLOPE 0.157, HEPG2TOX_R_SQUARED 0.175, read-out: LUCIFERASE INFECTION ASSAY - IC50): < 5.00
CC(C)(C)c1nc(-c2ccc(N)cc2)no1 | 9.21 µM | pIC50 (HEPG2TOX_HILL_SLOPE 0.127, HEPG2TOX_R_SQUARED 0.315, PBLUC_HILL_SLOPE 1.58, PBLUC_R_SQUARED 0.494, read-out: LUCIFERASE INFECTION ASSAY - IC50): 5.64

Structure (SMILES) | IC90 | further results
CC(C)(CNC(=O)c1ccc(F)cc1)SCc1ccc(F)cc1 | > 9.84 µM | pIC50 (HEPG2TOX_HILL_SLOPE 0.147, HEPG2TOX_R_SQUARED 0.538, PBLUC_HILL_SLOPE 1.03, PBLUC_R_SQUARED 0.662, read-out: LUCIFERASE INFECTION ASSAY - IC50): 5.45
Cc1ccc(S(=O)(=O)Oc2c(C(C)C)cc(Nc3cc(C)ccc3C)cc2C(C)C)cc1 | > 10 µM | pIC50 (HEPG2TOX_HILL_SLOPE 0.156, HEPG2TOX_R_SQUARED 0.126, PBLUC_HILL_SLOPE 13.1, PBLUC_R_SQUARED 0.436, read-out: LUCIFERASE INFECTION ASSAY - IC50): 5.05
Cc1cc(C(=O)COC(=O)c2ccccc2C(F)(F)F)c(C)n1Cc1ccccc1Cl | 3.52 µM | pIC50 (HEPG2TOX_HILL_SLOPE 0.164, HEPG2TOX_R_SQUARED 0.816, PBLUC_HILL_SLOPE 1.63, 0.884, PBLUC_R_SQUARED 0.848, 0.800, read-out: LUCIFERASE INFECTION ASSAY - IC50): 6.16
CC1CCN(Cc2csc(NC(=O)c3ccc4ncsc4c3)n2)CC1 | > 10 µM | pIC50 (HEPG2TOX_HILL_SLOPE 0.129, HEPG2TOX_R_SQUARED 0.115, read-out: LUCIFERASE INFECTION ASSAY - IC50): < 5.00
NC(=O)c1cccc(-c2cn3c(-c4ccccc4)cnc3cn2)c1 | > 10.5 µM | pIC50 (HEPG2TOX_HILL_SLOPE 0.15, HEPG2TOX_R_SQUARED 0.654, PBLUC_HILL_SLOPE 0.762, PBLUC_R_SQUARED 0.254, read-out: LUCIFERASE INFECTION ASSAY - IC50): < 4.98
N#Cc1c(SCC(=O)c2ccccc2)nc2c(c1-c1ccccc1)CCCC2 | 6.39 µM | pIC50 (HEPG2TOX_HILL_SLOPE 0.131, HEPG2TOX_R_SQUARED 0.0459, PBLUC_HILL_SLOPE 1.72, PBLUC_R_SQUARED 0.594, read-out: LUCIFERASE INFECTION ASSAY - IC50): 5.75
O=C(NC1CCCCC1C(F)(F)F)c1csc(-c2ccccc2)n1 (stereo unspecified) | 3.92 µM | pIC50 (HEPG2TOX_HILL_SLOPE 0.159, HEPG2TOX_R_SQUARED 0.617, PBLUC_HILL_SLOPE 14, PBLUC_R_SQUARED 0.734, read-out: LUCIFERASE INFECTION ASSAY - IC50): 5.47
CCOc1ccc(C(=O)Nc2nc3ccccn3c2C(=O)NC(C)C)cc1 | 8.41 µM | pIC50 (HEPG2TOX_HILL_SLOPE 0.179, HEPG2TOX_R_SQUARED 0.152, PBLUC_HILL_SLOPE 1.27, PBLUC_R_SQUARED 0.525, read-out: LUCIFERASE INFECTION ASSAY - IC50): 5.82
CCOC(=O)c1c(NC(=O)C2Cc3ccccc3CN2S(=O)(=O)c2cccs2)sc2c1CCCC2 (stereo unspecified) | > 10 µM | pIC50 (HEPG2TOX_HILL_SLOPE 0.167, HEPG2TOX_R_SQUARED 0.0943, PBLUC_HILL_SLOPE 2.23, PBLUC_R_SQUARED 0.122, read-out: LUCIFERASE INFECTION ASSAY - IC50): 5.19
CC(=O)c1cccc(-c2cnc3ccc(-c4cccc(Oc5ccccc5)c4)nn23)c1 | > 10 µM | pIC50 (HEPG2TOX_HILL_SLOPE 0.164, HEPG2TOX_R_SQUARED 0.772, PBLUC_HILL_SLOPE 1.12, PBLUC_R_SQUARED 0.566, read-out: LUCIFERASE INFECTION ASSAY - IC50): 5.72
Cc1ccc(C)c(NC(=O)C(OC(=O)c2c3c(nc4ccccc24)CCN(C)C3)c2ccccc2)c1 (stereo unspecified) | > 10 µM | pIC50 (HEPG2TOX_HILL_SLOPE 0.135, HEPG2TOX_R_SQUARED 0.194, read-out: LUCIFERASE INFECTION ASSAY - IC50): < 5.00
O=C(CCC1CCCC1)N1CCC(c2nnc3n2CCC3)CC1 | > 10 µM | pIC50 (HEPG2TOX_HILL_SLOPE 0.129, HEPG2TOX_R_SQUARED 0.379, read-out: LUCIFERASE INFECTION ASSAY - IC50): < 5.00
CCCCNS(=O)(=O)c1ccc2nc(SCC3CCCO3)[nH]c2c1 (stereo unspecified) | > 10 µM | pIC50 (HEPG2TOX_HILL_SLOPE 0.14, HEPG2TOX_R_SQUARED 0.119, PBLUC_HILL_SLOPE 2.38, PBLUC_R_SQUARED 0.33, read-out: LUCIFERASE INFECTION ASSAY - IC50): 5.01
CN(C)S(=O)(=O)c1cccc(NC(=O)c2ccc(-n3cnc4ccccc43)cc2)c1 | 6.32 µM | pIC50 (HEPG2TOX_HILL_SLOPE 0.179, HEPG2TOX_R_SQUARED 0.448, PBLUC_HILL_SLOPE 2.55, PBLUC_R_SQUARED 0.642, read-out: LUCIFERASE INFECTION ASSAY - IC50): 5.57
Fc1ccc(-c2ccc3ncc(-c4cccnc4)n3n2)cc1 | > 3.33 µM | pIC50 (HEPG2TOX_HILL_SLOPE 0.173, HEPG2TOX_R_SQUARED 0.325, read-out: LUCIFERASE INFECTION ASSAY - IC50): < 5.48
Cc1[nH]c2ccccc2c1C(=O)C(C)OC(=O)C1(c2cccc(F)c2)CCCC1 (stereo unspecified) | > 10 µM | pIC50 (HEPG2TOX_HILL_SLOPE 0.175, HEPG2TOX_R_SQUARED 0.148, read-out: LUCIFERASE INFECTION ASSAY - IC50): < 5.00
